Our source for the IC50 and inhibition values is patent US7109193B2, “Tricyclic diazepines tocolytic oxytocin receptor antagonists” (Wyeth, priority 2001, dated 2006).

Structures can show the parent of a compound that is named as a salt.

For the assay, the target named is T1, human oxytocin receptor (Homo sapiens, UniProt P30559).
T1 construct: host or cells: CHO cells (pcDNA3.1 vector)
T1 sequence (P30559 1-389): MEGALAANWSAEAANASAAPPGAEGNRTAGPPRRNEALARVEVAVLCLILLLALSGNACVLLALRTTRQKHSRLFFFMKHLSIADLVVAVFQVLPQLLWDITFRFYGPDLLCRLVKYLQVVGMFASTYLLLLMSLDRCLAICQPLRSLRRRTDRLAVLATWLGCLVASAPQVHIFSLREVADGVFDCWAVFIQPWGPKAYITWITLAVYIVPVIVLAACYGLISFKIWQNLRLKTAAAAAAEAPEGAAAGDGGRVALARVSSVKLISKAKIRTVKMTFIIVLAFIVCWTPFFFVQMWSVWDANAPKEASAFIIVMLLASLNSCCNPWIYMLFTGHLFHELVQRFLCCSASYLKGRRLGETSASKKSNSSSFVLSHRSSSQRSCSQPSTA
Kind of assay: Oxytocin binding in Chinese Hamster Ovary cell membranes expressing human oxytocin receptors. The conditions noted are these: CHO cell membranes, [3H]oxytocin; for IC50: values in parentheses, read-out: OT (IC50); for inhibition at 0.1 µM: 100 nM, values without parentheses, read-out: OT % inhibition @ 100% nM.

As a reminder, the IC50 is the point on the concentration scale where inhibition reaches its midpoint. In the case of `Cc1cc(C(=O)N2Cc3ccc(C(=O)N4CCN(C)CC4)n3Cc3ccccc32)ccc1-c1ccccc1C(F)(F)F` [Example 2, (4-Methyl-piperazin-1-yl)-[10-(2-methyl-2′-trifluoromethyl-[1,1′-biphenyl]-4-yl)-carbonyl]-10,11-dihydro-5H-pyrrolo[2,1-c][1,4]benzodiazepin-3-yl-methanone], the IC50 was 12.5 nM.
`Cc1cc(C(=O)N2Cc3ccc(C(=O)N4CCNCC4)n3Cc3ccccc32)ccc1-c1ccccc1C(F)(F)F` [Example 7, 10,11-Dihydro-10-[[2-methyl-2′-trifluoromethyl-[1,1′-biphenyl]-4-yl]carbonyl]-3-(1-piperazinylcarbonyl)-5H-pyrrolo[2,1-c][1,4]benzodiazepine hydrochloride salt]: the IC50 stood at 11.4 nM.
Consider `Cc1cc(C(=O)N2Cc3ccc(C(=O)NC(=N)N)n3Cc3ccccc32)ccc1-c1ccccc1C(F)(F)F` [Example 8, N-[(10-{[2-methyl-2′-(trifluoromethyl)[1,1′-biphenyl]-4-yl]carbonyl}-10,11-dihydro-5H-pyrrolo[2,1-c][1,4]benzodiazepin-3-yl)carbonyl]guanidine], for which the half-inhibitory concentration (IC50) was determined as 6.37 nM.
Consider `COc1cc(-c2ccccc2C)ccc1C(=O)N1Cc2ccc(C(=O)N(C)CCCN(C)C)n2Cc2ccccc21` [Example 11, N-Methyl-N-[3-(dimethylamino)propyl]-10-[(3-methoxy-2′-methyl[1,1′-biphenyl]-4-yl)carbonyl]-10,11-dihydro-5H-pyrrolo[2,1-c][1,4]benzodiazepine-3-carboxamide], for which the 50% inhibitory concentration (IC50) came out at 3.44 nM.
`COc1cc(-c2ccccc2F)c(Cl)cc1C(=O)N1Cc2cccn2Cc2ccccc21` [Example 18B, 10-{[6-Chloro-3-methoxy-2′-fluoro-[1,1′-biphenyl]-4-yl]carbonyl}-10,11-dihydro-5H-pyrrolo[2,1-c][1,4]benzodiazepine]: the concentration for half-maximal inhibition (IC50) was found to be 14.5 nM.
In the case of `COc1cc(-c2ccccc2C(F)(F)F)c(OC)cc1C(=O)N1Cc2cccn2Cc2ccccc21` [Example 32, 10-{[3,6-Dimethoxy-2′-trifluoromethyl-[1,1′-biphenyl]-4-yl]carbonyl}-10,11-dihydro-5H-pyrrolo[2,1-c][1,4]benzodiazepine], the IC50 came to 185 nM.
Still for that read-out and setting: under `COc1cc(-c2ccccc2Cl)c(Cl)cc1C(=O)N1Cc2ccc(C(=O)N(C)C3CCN(C)CC3)n2Cc2ccccc21` [Example 43, 10-[(2′-Chloro-6-chloro-3-methoxy-[1,1′-biphenyl]-4-yl)carbonyl]-N-methyl-N-(1-methylpiperidin-4-yl)-10,11-dihydro-5H-pyrrolo[2,1-c][1,4]benzodiazepine-3-carboxamide] stands 1.66 nM; under `COc1cc(-c2ccccc2C)c(Cl)cc1C(=O)N1Cc2ccc(C(=O)N3CCN(C)CC3)n2Cc2ccccc21` [Example 47, {10-[(6-Chloro-3-methoxy-2′-methyl[1,1′-biphenyl]-4-yl)carbonyl]-10,11-dihydro-5H-pyrrolo[2,1-c][1,4]benzodiazepin-3-yl}(4-methyl-1-piperazinyl)methanone], 6.61 nM.
Same read-out and setting: under `COc1ccccc1-c1ccc(C(=O)N2Cc3ccc(C(=O)N4CCN(C)CC4)n3Cc3ccccc32)cc1` [Example 48, {10-[(2′-Methoxy[1,1′-biphenyl]-4-yl)carbonyl]-10,11-dihydro-5H-pyrrolo[2,1-c][1,4]benzodiazepin-3-yl}(4-methyl-1-piperazinyl)methanone] stands 6.7 nM.
Still for that read-out and setting: to `Cc1cc(C(=O)N2Cc3ccc(C(=O)N4CCCN(C)CC4)n3Cc3ccccc32)ccc1-c1ccccc1C(F)(F)F` [Example 59, (4-Methyl-1,4-diazepan-1-yl)(10-{[2-methyl-2′-(trifluoromethyl)[1,1′-biphenyl]-4-yl]carbonyl}-10,11-dihydro-5H-pyrrolo[2,1-c][1,4]benzodiazepin-3-yl)methanone] belongs 16.4 nM; to `COc1cc(-c2ccccc2C)c(Cl)cc1C(=O)N1Cc2ccc(C(=O)N3CCCN(C)CC3)n2Cc2ccccc21` [Example 60, {10-[(6-Chloro-3-methoxy-2′-methyl[1,1′-biphenyl]-4-yl)carbonyl]-10,11-dihydro-5H-pyrrolo[2,1-c][1,4]benzodiazepin-3-yl}(4-methyl-1,4-diazepan-1-yl)methanone], 5.39 nM; to `COc1ccccc1-c1ccc(C(=O)N2Cc3ccc(C(=O)N4CCCN(C)CC4)n3Cc3ccccc32)cc1` [Example 61, {10-[(2′-Methoxy[1,1′-biphenyl]-4-yl)carbonyl]-10,11-dihydro-5H-pyrrolo[2,1-c][1,4]benzodiazepin-3-yl}(4-methyl-1,4-diazepan-1-yl)methanone], 4.5 nM.
One may read the inhibition as the share of the control response that was lost under treatment. Regarding `COc1cccc(-c2cc(OC)c(C(=O)N3Cc4ccc(C(=O)NCCCN(C)C)n4Cc4ccccc43)cc2Cl)c1` [Example 79, 10-[(6-Chloro-3,3′-dimethoxy[1,1′-biphenyl]-4-yl)carbonyl]-N-[3-(dimethylamino)propyl]-10,11-dihydro-5H-pyrrolo[2,1-c][1,4]benzodiazepine-3-carboxamide], the inhibition at 0.1 µM turned out to be 35%.
For `COc1cc(C(=O)N2Cc3ccc(C(=O)NCCCN(C)C)n3Cc3ccccc32)ccc1-c1cccc2ccccc12` [Example 80, N-[3-(Dimethylamino)propyl]-10-[3-methoxy-4-(1-naphthyl)benzoyl]-10,11-dihydro-5H-pyrrolo[2,1-c][1,4]benzodiazepine-3-carboxamide], the inhibition at 0.1 µM was determined as 44%.
The same measure, in the same setting: under `COc1ccccc1-c1ccc(C(=O)N2Cc3ccc(C(=O)NCCCN(C)C)n3Cc3ccccc32)cc1OC` [Example 81, 10-[(2,2′-Dimethoxy[1,1′-biphenyl]-4-yl)carbonyl]-N-[3-(dimethylamino)propyl]-10,11-dihydro-5H-pyrrolo[2,1-c][1,4]benzodiazepine-3-carboxamide] stands 43%; under `COc1cccc(-c2ccc(C(=O)N3Cc4ccc(C(=O)NCCCN(C)C)n4Cc4ccccc43)cc2OC)c1` [Example 82, 10-[(2,3′-Dimethoxy[1,1′-biphenyl]-4-yl)carbonyl]-N-[3-(dimethylamino)propyl]-10,11-dihydro-5H-pyrrolo[2,1-c][1,4]benzodiazepine-3-carboxamide], 50%.
The same measure, in the same setting: under `CN(C)CCCNC(=O)c1ccc2n1Cc1ccccc1N(C(=O)c1ccc(-c3cccc4ccccc34)cc1Cl)C2` [Example 83, 10-[2-Chloro-4-(1-naphthyl)benzoyl]-N-[3-(dimethylamino)propyl]-10,11-dihydro-5H-pyrrolo[2,1-c][1,4]benzodiazepine-3-carboxamide] stands 10%.
For `Cc1cc(C(=O)N2Cc3ccc(C(=O)N(C)CCN(C)C)n3Cc3ccccc32)ccc1-c1ccccc1C(F)(F)F` [Example 85, N-[2-(Dimethylamino)ethyl]-N-methyl-10-{[2-methyl-2′-(trifluoromethyl)[1,1′-biphenyl]-4-yl]carbonyl}-10,11-dihydro-5H-pyrrolo[2,1-c][1,4]benzodiazepine-3-carboxamide], the IC50 is 3.02 nM.
The same measure, in the same setting: under `COc1cc(-c2ccccc2C)c(Cl)cc1C(=O)N1Cc2ccc(C(=O)N(C)CCN(C)C)n2Cc2ccccc21` [Example 86, 10-[(6-Chloro-3-methoxy-2′-methyl[1,1′-biphenyl]-4-yl)carbonyl]-N-[2-(dimethylamino)ethyl]-N-methyl-10,11-dihydro-5H-pyrrolo[2,1-c][1,4]benzodiazepine-3-carboxamide] stands 2.31 nM.
Turning to `COc1cccc(-c2cc(OC)c(C(=O)N3Cc4ccc(C(=O)N(C)CCN(C)C)n4Cc4ccccc43)cc2Cl)c1` [Example 87, 10-[(6-Chloro-3,3′-dimethoxy[1,1′-biphenyl]-4-yl)carbonyl]-N-[2-(dimethylamino)ethyl]-N-methyl-10,11-dihydro-5H-pyrrolo[2,1-c][1,4]benzodiazepine-3-carboxamide], the half-maximal inhibitory concentration (IC50) stood at 4.63 nM.
Regarding `COc1ccccc1-c1ccc(C(=O)N2Cc3ccc(C(=O)N(C)CCN(C)C)n3Cc3ccccc32)cc1C` [Example 88, N-[2-(Dimethylamino)ethyl]-10-[(2′-methoxy-2-methyl[1,1′-biphenyl]-4-yl)carbonyl]-N-methyl-10,11-dihydro-5H-pyrrolo[2,1-c][1,4]benzodiazepine-3-carboxamide], the inhibition at 0.1 µM turned out to be 98%.
Still for that read-out and setting: under `COc1cccc(-c2ccc(C(=O)N3Cc4ccc(C(=O)N(C)CCN(C)C)n4Cc4ccccc43)cc2C)c1` [Example 89, N-[2-(Dimethylamino)ethyl]-10-[(3′-methoxy-2-methyl[1,1′-biphenyl]-4-yl)carbonyl]-N-methyl-10,11-dihydro-5H-pyrrolo[2,1-c][1,4]benzodiazepine-3-carboxamide] stands 97%; under `COc1ccccc1-c1ccc(C(=O)N2Cc3ccc(C(=O)N(C)CCN(C)C)n3Cc3ccccc32)cc1` [Example 90, N-[2-(Dimethylamino)ethyl]-10-[(2′-methoxy[1,1′-biphenyl]-4-yl)carbonyl]-N-methyl-10,11-dihydro-5H-pyrrolo[2,1-c][1,4]benzodiazepine-3-carboxamide], 100%; under `Cc1ccccc1-c1ccc(C(=O)N2Cc3ccc(C(=O)N(C)CCN(C)C)n3Cc3ccccc32)cc1` [Example 91, N-[2-(Dimethylamino)ethyl]-N-methyl-10-[(2′-methyl[1,1′-biphenyl]-4-yl)carbonyl]-10,11-dihydro-5H-pyrrolo[2,1-c][1,4]benzodiazepine-3-carboxamide], 97%.
